By inhibition is commonly meant how much of the control response was suppressed. Higher therefore signals a response far below the control. Broadly, the mortality is the share of the test organisms that died. A high value points to fewer survivors.

Experiment [1] has as its system MDR K. pneumoniae (ATCC BAA2472). Nature of the experiment: DMG growth inhibition in liquid culture (CFU/mL). It counts as cell-based, Klebsiella pneumoniae. As to the method: Growth conditions. All strains were routinely grown on LB agar plates or in LB broth. For DMG-growth inhibition study, S. Typhimurium strains ATCC 14028 and ATCC 700408 were grown in M9 minimal medium (M9 minimal salts, 0.4% glucose, 2 mM MgSO4, 0.1 mM CaCl2), and 1 μg/mL thiamine, pH 7.2). K. pneumoniae was grown in “W-U” medium, modified from Bender et al. 1977 129:1001-1009, containing 60 mM K2HPO4, 33 mM KH2PO4, 0.4 mM MgSO4, 0.4% Glucose, and 5 mM urea (instead of KNO3), pH 7.4. Briefly, overnight cultures of S. Typhimurium and K. pneumoniae were harvested, spun at 14,000 rpm for five minutes, washed once with either M9 (S. Typhimurium) or W-U (K. pneumoniae) and resuspended in either M9 (S. Typhimurium) or W-U (K. pneumoniae). […] Cells were incubated for 24 hours at 37° C. with shaking at 250 rpm, then serially diluted in PBS and 5 μL of each dilution was spotted in triplicate on LB plate. Colony forming units (CFU) were counted after 16 hours at 37° C. Each growth experiment was done at least three times.

The subject of experiment [2] is Helicobacter pylori 43504. Nature of the experiment: Antibiofilm assay on established biofilm. Particulars: DMG added for additional 24 hours. It counts as cell-based. As to the method: Antibiofilm assay. H. pylori culture at OD600=0.15 was added to a non-tissue culture treated polystyrene 96 well plate (Falcon) and incubated at 37° C. micro-aerobically without shaking for 48 hours. After the initial incubation, the supernatant was removed from the wells and BHI+0.4% β-cyclodextran was added back to the wells with or without Na2DMG at various concentrations. The plate was then incubated an additional 24 hours. Then, the crystal violet biofilm assay was performed as above.

Experiment [3] deals with C. concisus (strain 13826, ATCC BAA-1457). Nature of the experiment: Growth inhibition, solid plates (CFU). The experiment is classed as cell-based, Campylobacter concisus. Particulars: BA plates, 24 hours.
For experiment [4], the system named is C. jejuni (strain 81-176, ATCC BAA-2151). Kind of experiment: Growth inhibition, solid plates (CFU). It counts as cell-based, Campylobacter jejuni.
Experiment [5] concerns urease activity in K. pneumoniae BAA-2472. Nature of the experiment: Urease assay on cell-free extracts of cells grown with DMG. It counts as biochemical. Particulars: overnight. As to the method:
Thus, similar to hydrogenase inhibition, it appears DMG-mediated Ni chelation can be used to efficiently block urease activity in Klebsiella.
Urease assays. […] Cells were pelleted at 6,000 rpm for 30 minutes and washed three times with PBS (pH 7.4). Cells were standardized to an optical density (OD600) of 4.5, added to sterile glass beads (0.1 mm diameter, Biospec Products, Bartlesville, Okla.) at a 100% w/v ratio, and frozen at −80° C. The bead and cell mixture was thawed at room temperature and vortexed at 3,200 rpm for six minutes with one minute intervals on ice. The mixture was pelleted at 14,000 rpm for two minutes and the cell-free supernatant was assayed for urease activity using the phenol-hypochlorite method (Weatherburn et al. 1967. Analytical Chemistry 39:971-974). Protein concentration was determined using the BCA protein kit (Thermo Fisher Pierce, Rockford, Ill., USA). Urease activity is expressed as μmoles of NH3 produced per minute per mg of total protein.

Experiment [6] concerns S. Typhimurium strain 14028. Nature of the experiment: Typhoid fever-mouse model (survival, organ burden). It counts as in vivo, BALB/c mice. As to the method: The bacterial burden in livers and spleens was determined three days after infection (FIG. 5).
Mouse experiments—Infection Experiments. […] Female BALB/c mice (Charles River, Boston, Mass.) were orally inoculated individually with the S. Typhimurium strain ATCC 14028, following previously described methods (Maier et al. 2004 Infect Immun 72:6294-6299; Maier et al. 2014 PLoS One 9:e110187; Lamichhane-Khadka R et al. 2015 Infect Immun 83:311-316). Briefly, S. Typhimurium cells grown overnight in LB were harvested, washed, and suspended in sterile PBS to a final OD of OD600 0.01 (approximately 10^7 CFU/mL) and 0.1-mL volumes (10^6 bacterial cells) were introduced orally into each mouse. […] The mice were observed twice daily, and morbidity was recorded. In addition, a fourth independent experiment was performed to determine organ (liver and spleen) bacterial burdens. In this experiment, two groups of eight mice each were inoculated with S. Typhimurium 14028. […] Infection with S.T. 14028 was done as described above. Mice were euthanized 72 hours after infection. Livers and spleens were removed and homogenized in sterile PBS. Dilutions of the homogenate were plated on bismuth sulfite agar plates (BD DIFCO, Becton Dickinson, Franklin Lakes, N.J.), a selective medium for Salmonella species. Colony forming units (CFU) were counted after overnight incubation of the plates at 37° C.

The test system of experiment [7] is Helicobacter pylori 43504. Kind of experiment: Biofilm inhibition assay (crystal violet). The experiment is classed as cell-based. Particulars: 48 hours with DMG. As to the method: (§1) Biofilm inhibition assay. S. Typhimurium and K. pneumoniae cultures were adjusted to an optical density (OD600) of 0.1 in fresh LB broth. H. pylori culture was adjusted to an OD600 of 0.15 in brain heart infusion (BHI) supplemented with 0.4% β-cyclodextran. […] Plates containing S. Typhimurium and K. pneumoniae were incubated at 37° C. aerobically without shaking for 18 hours. Plates containing H. pylori were incubated at 37° C. microaerobically without shaking for 48 hours. After incubation with (Na2DMG) a crystal violet biofilm assay was performed as previously described with modifications (Kwasny et al. 2010. Current Protocols in Pharmacology 50:13A. 8.1-13A. 8.23). Briefly, supernatant was removed from the wells. Next, adherent cells were gently washed with phosphate-buffered saline (PBS) and allowed to air dry for 15 minutes. Cells were then heat fixed for one hour at 60° C. before staining with 0.5% crystal violet for 5 minutes. After the crystal violet was thoroughly washed from the wells with distilled deionized water, cells were air dried for 15 minutes. Acetic acid (33%) was then added to the wells to solubilize the crystal violet. The crystal violet-acetic acid solution was transferred to a clean 96 well plate and the OD600 was measured.

Experiment [8] deals with Klebsiella pneumoniae ATCC BAA2472. Nature of the experiment: Biofilm inhibition assay (crystal violet). It counts as cell-based. The note with it: 18 hours with DMG. As to the method:
as §1

Experiment [9] relates to S. Typhimurium ATCC 700408. Kind of experiment: Biofilm inhibition assay (crystal violet). It counts as cell-based, Salmonella enterica serovar Typhimurium. The note with it: 18 hours with DMG. As to the method: as §1
Where [10] appears, read: oral 3 mg DMG daily, three-day treatment.
Setting [11] is: oral DMG 3 mg at 24 h and 30 min before and 24 h post infection, burden three days after infection, n=8.

Take `CC(=NO)C(C)=NO` [DMG, dimethylglyoxime]: the “effect on bacterial growth” value in [1] (DMG at 2.5 mM, 5 mM, or 7.5 mM) is listed as “no measurable effect”. The inhibition at 10000 µM in experiment [1] (Klebsiella pneumoniae, ATCCBAA2472, 24 h) is greater than 100%. Also, the “effect on established (48 hours of growth) biofilm” value in [2] was “able to counteract”. Besides, the “effect on growth (CFUs, colony size)” value in experiment [3] (DMG 2 mM) is given as “bacteriostatic”; in experiment [4] (BHI plates, 5 mM DMG, 24 hours) it was “bacteriostatic”. The “effect on growth (CFUs)” value is recorded as “bactericidal” in [3] (DMG 4 mM, no CFU detected (detection limit: 200 CFUs)) and “bactericidal” in experiment [4] (BHI plates, 5 mM DMG + CuSO4 1 μM to 500 μM, no detectable growth (detection limit: 200 CFUs)). Further, in experiment [4] (DMG (2 mM)/Cu (0.5 mM) combination), the effect on growth result is listed as “bactericidal”. Further, the Urease activity in experiment [5] (DMG 1 mM in LB broth) was 0.05 ± 0.01 μmoles of NH3 produced per minute per mg of total protein; in [5] (DMG 2 mM in LB broth), 0.03 ± 0.01 μmoles of NH3 produced per minute per mg of total protein. For the same compound, in experiment [6] (setting [10]), the mortality was found to be 100%. The “postponement of time of death” value in experiment [6] (setting [10]) is reported as “two”. Moreover, the mouse survival is on record as 50% in experiment [6] (oral 3 mg DMG six hours post-infection then daily for nine days, n=4) and 37.5% in [6] (oral 3 mg DMG six hours post-infection then daily for seven days, n=8). The “bacterial colonization of livers vs non-DMG treated group” value in experiment [6] (setting [11]) is reported as “Significantly lower”. For the same compound, the “bacterial colonization of spleens vs non-DMG treated group” value in [6] (setting [11]) was “Significantly lower”. Besides, the biofilm formation result in [7], in [8] and in experiment [9] was “able to inhibit biofilm formation” each time.

Source of the values: patent US20220117266A1, “NICKEL CHELATION THERAPY” (priority 2019, published 2022).
